This note sets out measurements from patent publication US20060276440A1, “Treatment of inflammatory disorders” (priority 2005, published 2006).

Like-named read-outs stand apart in the source and are kept apart here. Bounds are passed on as bounds.

Type in all cases: cell-based, human
One assay concerns MMP-13. Briefly: IL-1/OSM-stimulated pro-MMP-13 production in SW-1353 cells (ELISA). To be noted: for IC50: Homo sapiens, mean (Examples 8, 10), read-out: IC50 values by pro-MMP-13 (OSM/IL-1-mediated production); for IC50 / effect on OSM/IL-1-mediated pro-MMP-13 production: SW1353 cells; for effect on OSM/IL-1-mediated pro-MMP-13 production: up to 1.5 μM. An excerpt: To test the compounds identified in the preliminary reporter (luciferase) activity […]® line 4A1 screen for inhibition of OSM signaling in a more physiologically relevant environment, a human cell line involved in an inflammatory disease was adapted. The human cartilage cell line SW-1353 was selected.
In the human cartilage cell line SW-1353, while IL-1 is believed to activate expression of collagenases to a small degree and OSM is believed to have no effect on collagenase expression, a combination of IL-1 and OSM is believed to lead to a synergistic activation of collagenases to much higher levels (S. Cowell et al., Biochem J 331 (Pt 2), 453 (Apr. 15, 1998). Regulation of MMP-13 in SW-1353 cells is, therefore, believed to provide a biomarker which can be used to monitor IL-1/OSM-mediated signal transduction events in secondary assays.
The same supernatants of culture media used in the primary screen were assayed for IL-1/OSM-stimulated pro-MMP-13 production and MMP-2 production by enzyme-linked immunosorbent assay (ELISA).
For matrix metalloproteinase (MMP) measures, SW1353 cells were grown to confluence in 24 well plates, washed in DMEM (with Ham's F12) and placed in 500 ul of serum free DMEM/F-12 with 0.2% lactalbumin hydrosylate with and without OsM/IL-1. After 24 hrs, supernatants were collected and the amounts of proMMP13, totalMMP2, and proMMP1 were measured using Quantikine® ELISA kit for human MMPs (R & D systems, Minneapolis, Minn.). All MMP measures were normalized to viable cell numbers based on a tetrazolium (MTS) colorimetric measure (Promega, Madison, Wis.).
A general note: ELISA stands for enzyme-linked immunosorbent assay.

The test system of a further assay is OSM signaling. Briefly: […] 4A1 cell line (A549) OSM-stimulated luciferase reporter assay. Particulars: for IC50: Homo sapiens, A549; for effect on OSM-mediated reporter activity: up to 1.5 μM. How it is done:
Cell line 4A1 was established in A549 cells (a human lung cancer cell line) using BV32, a vector that carries both the luciferase and GFP reporters. Assay development was performed to optimize the conditions of the OSM-response in the 4A1 […]® line.
(§1) Reporter activities of Sentinel® clones were measured using the Steady-Glo® Luciferase assay system (Promega, Madison, Wis.), according to the manufacturer's instructions, and were normalized to cell numbers based on nucleic acid quantification (CyQuant® cell proliferations assay, Molecular Probes/Invitrogen, Carlsbad, Calif.). In order to identify potential anti-inflammatory compounds, the OSM-responding Sentinel® clone 4A1 was used for a library screen of approximately 1800 compounds.
For orientation: In a reporter assay the amount or activity of a reporter protein is the signal.

For a further assay, the system named is 4A1 reporter activity. As to the kind of experiment: Activation of 4A1 Sentinel luciferase reporter by cytokines. Particulars: for maximum activation of 4A1 luciferase reporter over background / EC50, induced reporter activity of 4A1: 4A1 cells; for EC50, induced reporter activity of 4A1: IL-1; for stimulatory effect on 4A1 reporter activity: other gp-130-binding cytokine family members, data not shown. How it is done:
as §1
Sentinel lines were developed by utilizing promoter trapping technology in combination with positive and negative selections to efficiently deliver reporter genes into endogenously regulated genetic sites. Using this approach, a Sentinel cell line, 4A1, in A549 lung carcinoma cells that responded specifically to OSM and IL-1 stimulation among a panel of cytokines and active compounds was established (FIG. 9A).
OSM dose-dependently activated the luciferase reporter activity of 4A1 5-7 folds over background with EC50 of approximately 50 ng/ml (FIGS. 9A and B). […] When OSM and IL-1 were added together to 4A1 cells, the reporter activity appeared to be moderately more than the sum of individual activities obtained when OSM and IL-1 added separately (FIG. 9D). However, the luciferase activity of 4A1 appeared to respond predominantly to OSM, because OSM typically produced 5-7-fold maximum activation whereas IL-1 only produced 2-fold maximum activation (FIGS. 9B and C).

[1] abbreviates: 4A1 cell line, primary screen (Table 1), read-out: IC50, inhibition of OSM-stimulated (luciferase) reporter activity.
Setting [2] is: 4A1 cells, mean (Examples 7, 10), read-out: IC50 values by luciferase reporter activity (OSM-stimulated).

As for `COc1cc2c(c(OC)c1OC)-c1ccc(OC)c(=O)cc1[C@@H](NC(C)=O)CC2` (atropisomer, axis not shown) [Colchicine (4), colchicine], the “reduction of signal (MMP-13 secondary assay)” value in the assay on MMP-13 (at 4 μM, SW-1353) is recorded as “approximately 83%”.
Regarding `O=c1oc2ccccc2c(O)c1Cc1c(O)c2ccccc2oc1=O` [Dicumarol (11), 4-hydroxy-3-((4-hydroxy-2-oxo-2H-chromen-3-yl)methyl)-2H-chromen-2-one], the IC50 in the assay on OSM signaling (setting [1]) worked out at 3700 nM.
Same read-out and setting: the result for `C/C=C(/C(=C/C)c1ccc(O)cc1)c1ccc(O)cc1` [Dienestrol (10), 4-((2E,4E)-4-(4-hydroxyphenyl)hexa-2,4-dien-3-yl)phenol] reads 3500 nM; that for `COC(=O)Nc1nc2cc(Sc3ccccc3)ccc2[nH]1` [Fenbendazole (6), [5-(phenylthio)-1H-benzimidazol-2-yl]carbamic acid methyl ester], 800 nM.
`C=C1C(=O)[C@@]23[C@H](O)C[C@@H]4C(C)(C)CC[C@H](O)[C@@]4(CO)[C@@H]2CC[C@@H]1[C@H]3O` [Kamebakaurin, reference compound]: the “effect of pathway inhibitors on OSM-stimulated reporter activity” value (“effect of pathway inhibitors” for short) in the assay with OSM signaling (4A1 cells, FIG. 10A-E) is listed as “inhibited the reporter activity in a dose-dependent manner”.
Take `Clc1ccc2ncnc(NCc3ccc4c(c3)OCO4)c2c1` [MBCQ (5), 4-[[3,4-(Methylenedioxy)benzyl]amino]-6-chloroquinazoline]: the IC50 with OSM signaling (setting [1]) amounted to 400 nM.
As to `COc1c(C)c2c(c(O)c1C/C=C(\C)CCC(=O)O)C(=O)OC2` [Mycophenolic acid (3), 6-(4-Hydroxy-6-methoxy-7-methyl-3-oxo-5-phthalanyl)-4-methyl-4-hexenoic acid], the IC50 in the assay with OSM signaling (setting [1]) turned out to be 20 nM.
As to `COC(=O)Nc1nc2ccc(C(=O)c3cccs3)cc2[nH]1` [Nocodazole, reference compound], the IC50 in the assay on OSM signaling (setting [2]) is 104 nM; in the assay on MMP-13, > 400 nM.
Consider `COc1cccc(-c2cc(=O)c3ccccc3o2)c1N` [PD98059, reference compound], for which, in the assay with OSM signaling (4A1 cells, FIG. 10A-E), the “effect of pathway inhibitors” value was “inhibited the reporter activity in a dose-dependent manner”.
For `COc1cc([C@@H]2c3cc4c(cc3[C@H](O)[C@H]3COC(=O)[C@H]23)OCO4)cc(OC)c1OC` [Podophyllotoxin, reference compound], the IC50 worked out at 277 nM with OSM signaling (setting [2]) and 54.9 nM with MMP-13.
Consider `C[S+]([O-])c1ccc(-c2nc(-c3ccncc3)c(-c3ccc(F)cc3)[nH]2)cc1` (centres unmarked) [SB203580, reference compound], for which the “effect of pathway inhibitors” value in the assay with OSM signaling is “inhibited the reporter activity in a dose-dependent manner”.
`CC(=O)O[C@H]1C(=O)[C@@]2(C)[C@H]([C@H](OC(=O)c3ccccc3)[C@]3(O)C[C@H](OC(=O)[C@H](O)[C@@H](NC(=O)c4ccccc4)c4ccccc4)C(C)=C1C3(C)C)[C@]1(OC(C)=O)CO[C@@H]1C[C@@H]2O` [Taxol, reference compound]: the “effect on 4A1 reporter activity” value with OSM signaling (under 200 nM, data not shown) is “dose-dependently inhibited”. Also, in the assay with MMP-13 (data not shown), the “effect on MMP-13 production” value is given as “no effect”.
For `CC[C@]1(O)C[C@@H]2CN(CCc3c([nH]c4ccccc34)[C@@](C(=O)OC)(c3cc4c(cc3OC)N(C)[C@H]3[C@@](O)(C(=O)OC)[C@H](OC(C)=O)[C@]5(CC)C=CCN6CC[C@]43[C@@H]65)C2)C1` [Vinbalstine, vinblastine, reference compound], the IC50 in the assay on OSM signaling (setting [2]) stood at 3.4 ± 0.6 nM; with MMP-13, 11.6 ± 5.2 nM.
`CC1CCC2(C)CCC3C(=CCC4(C)C3CCC3C(C)(C(=O)O)C(C)CCC34C)C2C1C` (stereo not drawn) [β-boswellic acid (7), 1,2,3,4,4a, 5,6,6a, 6b, 7,8,8a, 9, 10, 11, 12, 12a, 14, 14a, 14b-icosahydro-3,4,8a,11,12,14a,14b-heptamethylpicene-4-carboxylic acid]: in the assay on OSM signaling (setting [1]), the IC50 stood at 1900 nM.
Turning to “IL-1β: cytokine from Peprotech used to stimulate cells”, in the assay with 4A1 reporter activity, the “maximum activation of 4A1 luciferase reporter over background” value is 2 fold. The “EC50, induced reporter activity of 4A1” value on 4A1 reporter activity was determined as 0.028 ± 0.01 ng/mL; at 4A1 reporter activity (listed as IL-1) it was 0.028 ng/mL.
On to “IL-6: member of the gp-130-binding cytokine family”, for which the “stimulatory effect on 4A1 reporter activity” value (“stimulatory effect” below) in the assay on 4A1 reporter activity was “no stimulatory effect”.
As to JAK inhibitor I [reference compound], the “effect of pathway inhibitors” value with OSM signaling (4A1 cells, FIG. 10A-E) is recorded as “inhibited the reporter activity in a dose-dependent manner”.
On to “LIF: member of the gp-130-binding cytokine family”, for which the “stimulatory effect” value in the assay on 4A1 reporter activity was “no stimulatory effect”.
“OSM: proinflammatory cytokine, 28-kD glycoprotein of the gp130-binding cytokine family”: the “maximum activation of 4A1 luciferase reporter over background” value in the assay with 4A1 reporter activity is listed as 5-7 fold.
As for cytochalacin B [reference compound], in the assay with OSM signaling (4A1 cells, data not shown), the “effect on OSM-mediated reporter activity” value is given as “did not have effect”. Moreover, in the assay on MMP-13 (data not shown), the “effect on OSM/IL-1-mediated pro-MMP-13 production” value was “did not have effect”.
As to cytochalacin D [reference compound], in the assay with OSM signaling (4A1 cells, data not shown), the “effect on OSM-mediated reporter activity” value is given as “did not have effect”. In addition, the “effect on OSM/IL-1-mediated pro-MMP-13 production” value with MMP-13 (data not shown) was “did not have effect”.

B1: IL-11: member of the gp-130-binding cytokine family (protein, UniProt P20809 22-199, looked up)
Interleukin-11: PGPPPGPPRVSPDPRAELDSTVLLTRSLLADTRQLAAQLRDKFPADGDHNLDSLPTLAMSAGALGALQLPGVLTRLRADLLSYLRHVQWLRRAGGSSLKTLEPELGTLQARLDRLLRRLQLLMSRLALPQPPPDPPAPPLAPPSSAWGGIRAAHAILGGLHLTLDWAVRGLLLLKTRL
B1: in the assay with 4A1 reporter activity, the “stimulatory effect” value is “no stimulatory effect”.

B2: CNTF: member of the gp-130-binding cytokine family (protein, UniProt P26441 1-200, looked up)
Ciliary neurotrophic factor: MAFTEHSPLTPHRRDLCSRSIWLARKIRSDLTALTESYVKHQGLNKNINLDSADGMPVASTDQWSELTEAERLQENLQAYRTFHVLLARLLEDQQVHFTPTEGDFHQAIHTLLLQVAAFAYQIEELMILLEYKIPRNEADGMPINVGDGGLFEKKLWGLKVLQELSQWTVRSIHDLRFISSHQTGIPARGSHYIANNKKM
On to B2, for which, in the assay on 4A1 reporter activity, the “stimulatory effect” value is reported as “no stimulatory effect”.

B3: CT-1: member of the gp-130-binding cytokine family (protein, UniProt Q16619 1-201, looked up)
Cardiotrophin-1: MSRREGSLEDPQTDSSVSLLPHLEAKIRQTHSLAHLLTKYAEQLLQEYVQLQGDPFGLPSFSPPRLPVAGLSAPAPSHAGLPVHERLRLDAAALAALPPLLDAVCRRQAELNPRAPRLLRRLEDAARQARALGAAVEALLAALGAANRGPRAEPPAATASAASATGVFPAKVLGLRVCGLYREWLSRTEGDLGQLLPGGSA
Take B3: in the assay with 4A1 reporter activity, the “stimulatory effect” value was “no stimulatory effect”.
